The structures appear in SMILES notation. Like-named read-outs stand apart in the source and are kept apart here.

For one assay, the target named is T1, Src (Homo sapiens, UniProt P12931).
T1 construct: purchased Invitrogen PR4336E
As to the kind of experiment: Cell-free kinase assay (Reaction Biology, ADP-Glo). The assay is classed as biochemical. The settings on record: inhibitor 500 nM; 100 μM ATP; average of duplicate. As to the method: Cell-free kinase activity assays were performed at Reaction Biology Corporation. Briefly, kinases were incubated with substrates, 100 μM ATP and a 3-fold serial dilution of compounds starting at 1 μM. DMSO was used as control. […] Experiments were performed in duplicates. The concentrations of kinases and substrates used in the assays are indicated on Table S1. Kinase activity was quantified using the ADP-Glo™ Kinase Assay System (Promega, Madison, WI) following the manufacturer's recommendations.
For orientation: In ADP-Glo the light output rises with the ADP produced.

The target of another assay is T2, FLT3 (Homo sapiens, UniProt P36888).
T2 construct: purchased Invitrogen PV3182
T2 sequence (P36888 564-993 limits assumed): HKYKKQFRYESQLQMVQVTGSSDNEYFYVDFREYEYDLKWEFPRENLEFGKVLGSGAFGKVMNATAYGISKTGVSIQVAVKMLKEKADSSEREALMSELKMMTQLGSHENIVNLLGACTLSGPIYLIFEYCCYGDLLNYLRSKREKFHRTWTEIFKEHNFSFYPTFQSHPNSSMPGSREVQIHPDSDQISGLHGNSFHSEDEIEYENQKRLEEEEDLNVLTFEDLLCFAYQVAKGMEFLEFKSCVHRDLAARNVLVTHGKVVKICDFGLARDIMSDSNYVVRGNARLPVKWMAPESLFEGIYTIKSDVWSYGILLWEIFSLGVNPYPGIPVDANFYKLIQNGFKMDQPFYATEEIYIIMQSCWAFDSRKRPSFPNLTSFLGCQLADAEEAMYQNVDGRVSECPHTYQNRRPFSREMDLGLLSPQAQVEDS
As to the kind of experiment: Cell-free kinase assay, single dose (Reaction Biology, ADP-Glo). The assay is classed as biochemical. The note with it: inhibitor 500 nM; 100 μM ATP; average of duplicate. The procedure: Cell-free kinase activity assays were performed at Reaction Biology Corporation. […] DMSO was used as control. […] Experiments were performed in duplicates. The concentrations of kinases and substrates used in the assays are indicated on Table S1. Kinase activity was quantified using the ADP-Glo™ Kinase Assay System (Promega, Madison, WI) following the manufacturer's recommendations.

For the next assay, the system named is MV4–11 cells. Put plainly: Antiproliferative activity (CellTitre-Blue, 72 h). Format: cell-based, human. The settings on record: for IC50: 72 h incubation, triplicates, read-out: IC50 (mean ±SD, nM) MV4–11. The procedure:
(§1) Cells were seeded into 96-well tissue culture-treated plates at 2.0 × 10^4 cells/mL for up to 24 h. DMSO stock solutions of compounds were serially diluted first in DMSO and subsequently into RPMI before being added to the cell cultures in triplicates, with 10 μM being the highest tested concentration. The plates were incubated for 72 h as above. The CellTitre-Blue assay (Promega, Madison WI) was then added to the cultures and incubated a further 4 h before the fluorescence measured following the manufacturers recommendations. The fluorescence data from compounds were normalized to that DMSO and the resulting data fitted to a non-linear regression equation to obtain IC50 using GraphPad Prism 5.0 Software (La Jolla, CA, USA).

Assay [1] has as its system MOLM-14 (ITD, F691 L) cells. Put plainly: Antiproliferative activity (CellTitre-Blue, 72 h). Format: cell-based, human. As to the method:
as §1

Assay [2] relates to MOLM-14 (ITD, D835Y) cells. As to the kind of experiment: Antiproliferative activity (CellTitre-Blue, 72 h). Format: cell-based, human. The note with it: 72 h incubation, triplicates, read-out: IC50 (mean ±SD, nM) MOLM-14 (ITD, D835Y). As to the method:
as §1

Another assay deals with MOLM-14 cells. Put plainly: Antiproliferative activity (CellTitre-Blue, 72 h). Format: cell-based, human. The note with it: 72 h incubation, triplicates, read-out: IC50 (mean ±SD, nM) MOLM-14. The procedure:
as §1

[3] abbreviates: Homo sapiens, MOLM-14, 72 h, 72 h incubation, triplicates, read-out: IC50 (mean ±SD, nM) MOLM-14 (ITD, F691 L).

T1 sequence (P12931 whole entry): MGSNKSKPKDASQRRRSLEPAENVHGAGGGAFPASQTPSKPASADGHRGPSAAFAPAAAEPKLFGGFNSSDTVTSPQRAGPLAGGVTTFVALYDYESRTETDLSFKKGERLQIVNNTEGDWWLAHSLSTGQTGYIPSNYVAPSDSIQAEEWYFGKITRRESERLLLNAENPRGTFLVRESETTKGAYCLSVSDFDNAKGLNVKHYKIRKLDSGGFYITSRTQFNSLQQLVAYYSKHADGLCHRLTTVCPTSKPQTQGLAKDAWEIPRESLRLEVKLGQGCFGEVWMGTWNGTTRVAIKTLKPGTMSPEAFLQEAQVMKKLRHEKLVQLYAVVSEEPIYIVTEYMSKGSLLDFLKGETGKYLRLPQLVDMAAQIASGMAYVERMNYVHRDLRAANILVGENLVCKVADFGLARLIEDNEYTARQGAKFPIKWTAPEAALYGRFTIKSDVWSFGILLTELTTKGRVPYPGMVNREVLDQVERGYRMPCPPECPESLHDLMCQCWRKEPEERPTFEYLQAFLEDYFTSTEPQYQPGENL

For `Cc1ccc(C(=O)Nc2ccc(CN3CCN(C)CC3)c(C(F)(F)F)c2)cc1C#Cc1cccnc1N` [Compound 1], the inhibition at 0.5 µM against Src stood at 99%; against FLT3, 96%.

As to `Cc1ccc(C(=O)Nc2ccc(CN3CCN(C)CC3)c(C(F)(F)F)c2)cc1C#Cc1ccc(N)nc1` [Compound 2], the inhibition at 0.5 µM on Src and at FLT3 was 99% in each case.

Consider `Cc1ccc(C(=O)Nc2ccc(CN3CCN(C)CC3)c(C(F)(F)F)c2)cc1C#Cc1nc(Br)cnc1N` [Compound 3], for which the inhibition at 0.5 µM on Src was 99%; at FLT3, 81%.

With `Cc1ccc(C(=O)Nc2ccc(CN3CCN(C)CC3)c(C(F)(F)F)c2)cc1C#Cc1c(N)ncc2ccccc12` [Compound 4], the inhibition at 0.5 µM on Src worked out at 100%; at FLT3, 93%.

For the molecule `Cc1ccc(C(=O)Nc2ccc(CN3CCN(C)CC3)c(C(F)(F)F)c2)cc1C#Cc1c(N)ncc2ccc(F)cc12` [Compound 6], the figures for the inhibition at 0.5 µM on Src and against FLT3 were 99% and 90%, respectively.

`Cc1ccc(C(=O)Nc2ccc(CN3CCN(C)CC3)c(C(F)(F)F)c2)cc1C#Cc1c(N)ncc2ccc(Cl)cc12` [Compound 8]: in the assay with MV4–11 cells (Homo sapiens, MV4-11, 72 h), the IC50 is about 0.5 nM. In addition, the inhibition at 0.5 µM against FLT3 worked out at 97%.

With `Cc1ncc(C(=O)Nc2ccc(CN3CCN(C)CC3)c(C(F)(F)F)c2)cc1C#Cc1c(N)ncc2ccc(Cl)cc12` [Compound 9], the IC50 in assay [1] (setting [3]) was 6.9 ± 0.05 nM; in the assay with MV4–11 cells, 0.4 ± 0.04 nM; in the assay on MV4–11 cells (Homo sapiens, MV4-11, 72 h) it was about 0.5 nM; in assay [2] (Homo sapiens, MOLM-14, 72 h) it was 10.4 ± 0.3 nM; in the assay on MOLM-14 cells (Homo sapiens, MOLM-14), 2.3 ± 0.1 nM. Moreover, the inhibition at 0.5 µM on Src and against FLT3 was 98% throughout.

For the molecule `Cc1cnc(C(=O)Nc2ccc(CN3CCN(C)CC3)c(C(F)(F)F)c2)cc1C#Cc1c(N)ncc2ccc(Cl)cc12` [Compound 10], the inhibition at 0.5 µM was found to be 93% at Src and 75% against FLT3.

On to `Cc1ccc(C(=O)Nc2ccc(CN3CCN(C)CC3)c(C(F)(F)F)c2)nc1C#Cc1c(N)ncc2ccc(Cl)cc12` [Compound 11], for which the IC50 was at most 15 nM in assay [1] (setting [3]) and at most 15 nM in assay [2] (Homo sapiens, MOLM-14, 72 h). Further, the inhibition at 0.5 µM was found to be 16% on Src and 43% against FLT3.

For `Cc1ccc2cnc(N)c(C#Cc3cc(C(=O)Nc4ccc(CN5CCN(C)CC5)c(C(F)(F)F)c4)ccc3C)c2c1` [Compound 12], the inhibition at 0.5 µM on Src is 100%; against FLT3 it was 98%.

For the molecule `Cc1ccc2cnc(N)c(C#Cc3cc(C(=O)Nc4ccc(CN5CCN(C)CC5)c(C(F)(F)F)c4)cnc3C)c2c1` [Compound 13], the IC50 in assay [1] (setting [3]) came to 1.1 ± 0.04 nM; with MV4–11 cells (Homo sapiens, MV4-11, 72 h), 0.4 ± 0.006 nM; in assay [2] (Homo sapiens, MOLM-14, 72 h), 4.7 ± 0.03 nM; with MOLM-14 cells (Homo sapiens, MOLM-14), 1.4 ± 0.03 nM. The inhibition at 0.5 µM at Src worked out at 98%; against FLT3 it was 100%.

Regarding `COc1ccc2c(N)ncc(C#Cc3cc(C(=O)Nc4ccc(CN5CCN(C)CC5)c(C(F)(F)F)c4)cnc3C)c2c1` [Compound 14], the inhibition at 0.5 µM against Src is 99%; on FLT3 it was 98%.

In the case of `Cc1ccc(C(=O)Nc2ccc(CN3CCN(C)CC3)c(C(F)(F)F)c2)cc1C#Cc1cnc(N)c2ccccc12` [Compound 15], the IC50 in assay [1] (setting [3]) was at most 15 nM; in assay [2] (Homo sapiens, MOLM-14, 72 h), at most 15 nM. The results for the inhibition at 0.5 µM against Src and against FLT3 were 97% and 100%, respectively.

For the molecule `Cc1ncc(C(=O)Nc2ccc(CN3CCN(C)CC3)c(C(F)(F)F)c2)cc1C#Cc1cnc(N)c2ccccc12` [Compound 16], the inhibition at 0.5 µM was determined as 100% against Src and 98% against FLT3.

With `Cc1ncc(C(=O)Nc2ccc(CN3CCN(C)CC3)c(C(F)(F)F)c2)cc1C#Cc1cnc(N)c2ccc(F)cc12` [Compound 17], the inhibition at 0.5 µM on Src and against FLT3 was 98% each time.

With `COc1ccc2cnc(N)c(C#Cc3cc(C(=O)Nc4ccc(CN5CCN(C)CC5)c(C(F)(F)F)c4)cnc3C)c2c1` [Compound 18], the IC50 in assay [1] (72 h incubation, triplicates, read-out: IC50 (mean ±SD, nM) MOLM-14 (ITD, F691 L)) came out at 1.1 ± 0.04 nM; in assay [1] (Table S2, superscript g, the values are: IC50) it was 1.1 nM; in the assay with MV4–11 cells, 0.2 ± 0.001 nM; in assay [2], 11.1 ± 0.08 nM; with MOLM-14 cells, 0.2 ± 0.002 nM. Further, the IC50 MV4-11 in the assay on MV4–11 cells (Table S2, superscript d, the values are: IC50) came to 0.2 nM. Also, the “%Src inhibition” value on Src is given as 98%. The “%FLT3 inhibition” value on FLT3 is given as 97%.

With `Cc1ccc(C(=O)Nc2ccc(CN3CCN(C)CC3)c(C(F)(F)F)c2)cc1C#Cc1cnc(N)c2ncccc12` [Compound 19], the inhibition at 0.5 µM against Src worked out at 98%; at FLT3, 99%.

As for `Cc1ncc(C(=O)Nc2ccc(CN3CCN(C)CC3)c(C(F)(F)F)c2)cc1C#Cc1cnc(NC2CC2)c2ncccc12` [Compound 21], the inhibition at 0.5 µM was 20% against Src and 80% against FLT3.

Take `Cc1ccc(C(=O)Nc2ccc(CN3CCN(C)CC3)c(C(F)(F)F)c2)cc1C#Cc1cncc2ccccc12` [Compound 22]: the inhibition at 0.5 µM on Src stood at 100%; against FLT3, 98%.

For `Cc1ccc(C(=O)Nc2ccc(CN3CCN(C)CC3)c(C(F)(F)F)c2)cc1C#Cc1cncc2ncccc12` [Compound 23], the inhibition at 0.5 µM at Src and at FLT3 was 99% throughout.

As to `Cc1ncc(C(=O)Nc2ccc(CN3CCN(C)CC3)c(C(F)(F)F)c2)cc1C#Cc1cncc2ncccc12` [Compound 24], the IC50 was determined as 1.8 ± 0.08 nM in assay [1] (setting [3]); 0.2 ± 0.009 nM with MV4–11 cells (Homo sapiens, MV4-11, 72 h); 3 ± 0.3 nM in assay [2] (Homo sapiens, MOLM-14, 72 h); 0.2 ± 0.01 nM in the assay with MOLM-14 cells (Homo sapiens, MOLM-14). In addition, the inhibition at 0.5 µM against Src is 98%; on FLT3, 100%.

Take `CC1(COc2ccc3c(c2)ncn3-c2ccc3cccc(N4CCC(N)CC4)c3n2)COC1` [Crenolanib, reference compound]: the IC50 in assay [1] (setting [3]) amounted to 15.6 ± 0.4 nM; with MV4–11 cells (Homo sapiens, MV4-11, 72 h), 3.1 ± 0.06 nM; in assay [2] (Homo sapiens, MOLM-14, 72 h), 6.6 ± 0.03 nM; in the assay with MOLM-14 cells (Homo sapiens, MOLM-14), 4.5 ± 0.8 nM. At FLT3, this molecule showed an inhibition at 0.5 µM of 99%.

As to `CO[C@@H]1[C@H](N(C)C(=O)c2ccccc2)C[C@H]2O[C@]1(C)n1c3ccccc3c3c4c(c5c6ccccc6n2c5c31)C(=O)NC4` [Midostaurin, reference compound], the IC50 in the assay with MOLM-14 cells (Homo sapiens, MOLM-14) was found to be 16.1 ± 0.02 nM.

With `Cc1ccc(C(=O)Nc2ccc(CN3CCN(C)CC3)c(C(F)(F)F)c2)cc1C#Cc1cnc2cccnn12` [Ponatinib, reference compound], the IC50 amounted to 6.8 ± 0.03 nM in assay [1] (Homo sapiens, MOLM-14, 72 h incubation, triplicates, read-out: IC50 (mean ±SD, nM) MOLM-14 (ITD, F691 L)); 0.1 ± 0.001 nM in the assay on MV4–11 cells (Homo sapiens, MV4-11); 52.6 ± 0.3 nM in assay [2] (Homo sapiens, MOLM-14); 0.5 ± 0.1 nM in the assay on MOLM-14 cells (Homo sapiens, MOLM-14).

Turning to `CC(C)(C)c1cc(NC(=O)Nc2ccc(-c3cn4c(n3)sc3cc(OCCN5CCOCC5)ccc34)cc2)no1` [Quizartinib, reference compound], the IC50 in assay [1] (setting [3]) turned out to be 48.5 ± 0.6 nM; in the assay with MV4–11 cells (Homo sapiens, MV4-11, 72 h) it was 0.4 ± 0.02 nM; in assay [2] (Homo sapiens, MOLM-14, 72 h) it was 23 ± 0.5 nM; in the assay with MOLM-14 cells (Homo sapiens, MOLM-14) it was 0.5 ± 0.02 nM.

As usually defined, the inhibition is how much of the control response was suppressed. Lower therefore signals little suppression. The term IC50 denotes the concentration at which inhibition is half-maximal.

The values are drawn from publication PMC6413339 (EBioMedicine, 2019).
